Pest or weed control and melting point data for 1 molecule are collected here from patent publication US9955691B2, “Macrocyclic picolinamides as fungicides” (DOW AGROSCIENCES LLC, priority 2014, dated 2018).

SMILES strings stand for the structures. Read-outs that look alike come from different tables or passages of the source. Some results are limits rather than exact numbers.

Data set [1] deals with Mycosphaerella graminicola; Anamorph: Septoria tritici. Description: Fungicidal activity: Leaf Blotch of Wheat (SEPTTR). To be noted: Zymoseptoria tritici, wheat leaf blotch; for pest or weed control at 100 µg/mL: High Volume (100 ppm); for pest or weed control at 121.5 g/ha: Low Volume (121.5 g/H). Format: in vivo. Summed up:
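Compounds were dissolved in acetone, diluted with nine volumes of water containing 110 ppm Triton X-100, and sprayed to run-off on first-leaf Yuma wheat seedlings inoculated with Septoria tritici spores before or after treatment. Plants were held in a dew chamber, then a 20° C. greenhouse. Percent control was derived from disease severity relative to untreated plants.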

Data set [2] relates to Puccinia triticina. Description: Fungicidal activity: Wheat Brown Rust (PUCCRT). Format: in vivo. To be noted: for pest or weed control at 100 µg/mL: High Volume (100 ppm); for pest or weed control at 121.5 g/ha: Low Volume (121.5 g/H). The essentials:
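Percent control of brown rust was derived from 0-100% severity on treated versus untreated first leaves. Yuma wheat seedlings were spray-treated to run-off (acetone/water, Triton X-100) and inoculated with P. triticina spores before or after treatment, then held overnight in dark dew at 22° C and moved to a 24° C greenhouse.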

[3] abbreviates: 24 h, 1 Day Protectant, read-out: SEPTTR 1 DP disease control.
[4] abbreviates: 72 h, 3 Day Curative, read-out: SEPTTR 3 DC disease control.
The mark [5] stands for this setting: 24 h, 1 Day Protectant, read-out: PUCCRT 1 DP disease control.
Where [6] appears, read: 72 h, 3 Day Curative, read-out: PUCCRT 3 DC disease control.

Consider `COc1ccnc(C(=O)N[C@@H]2COC[C@@H](Cc3ccccc3)[C@H](COCC(C)C)[C@@H](C)OC2=O)c1OCOC(C)=O` [compound 13], for which the melting point was in the range of 44 to 48 °C. In addition, in data set [1] (setting [3]), the pest or weed control at 100 µg/mL was more than 70% and the pest or weed control at 121.5 g/ha was more than 70%. Besides, in data set [1] (setting [4]), the pest or weed control at 100 µg/mL is more than 70% and the pest or weed control at 121.5 g/ha was more than 70%. Further, in data set [2] (setting [5]), the pest or weed control at 100 µg/mL is more than 70% and the pest or weed control at 121.5 g/ha was more than 70%. Moreover, in data set [2] (setting [6]), the pest or weed control at 100 µg/mL was more than 70% and the pest or weed control at 121.5 g/ha is more than 70%.
